Series [1] in a line: in vitro. The settings on record: human.
Series [2] relates to CedV F and G. Type of series: cell-based.
The test system of series [3] is HeV. Kind of series: microbe, parasite or virus in culture. Type of series: cell-based, Hendra virus. As to conditions: for IC50: read-out: IC50 (95% CI).
The test system of series [4] is rCedV-Luc. Kind of series: microbe, parasite or virus in culture. It is filed as cell-based. The settings on record: read-out: IC50 (95% CI).
Series [5] deals with rCedV-Luc. Put plainly: microbe, parasite or virus in culture. It is filed as cell-based. As to conditions: Cedar virus, Vero C1008, 48 h, read-out: IC50 (95% CI).
For series [6], the system named is NiV-B. Put plainly: microbe, parasite or virus in culture. The settings on record: for IC50: read-out: IC50 (95% CI). It is filed as cell-based, Nipah virus.
The subject of series [7] is Vero E6 cells.
For series [8], the system named is HEK 293T cells.
Series [9] concerns Vero 76 cell line. As to conditions: African green monkey.

Where two headings read alike, the source gives them in different places.

In the case of `CCOc1ccc(C2c3[nH]c4ccccc4c3CCN2C(=O)C2CCC2)cc1` (stereo not drawn) [Compound C1, cyclobutyl(1-(4-ethoxyphenyl)-1,3,4,9-tetrahydro-2H-pyrido[3,4-b]indol-2-yl)methanone], the CC50 in [1] was over 100 µM. The “Inhibition of cell-cell membrane fusion activity” value in series [2] is “did not inhibit cell-cell membrane fusion activity”. In addition, the “Selectivity index (SI)” value in series [3] was over 10; in series [6], over 55. For the same compound, the IC50 in series [3] (Henipavirus hendraense, Vero 76, 48 h) was determined as 9.87 µM; in series [4] (Cedar virus, HEK-293T, 48 h) it was 3.06 µM; in series [5], 7.82 µM; in series [6] (Henipavirus nipahense, Vero 76, 48 h), 1.83 µM.
`COc1ccc(Nc2nc(-c3nnn(-c4ccc(Br)cc4F)c3C)ns2)cc1` [Z, 3-(1-(4-bromo-2-fluorophenyl)-5-methyl-1H-1,2,3-triazol-4-yl)-N-(4-methoxyphenyl)-1,2,4-thiadiazol-5-amine] returned a CC50 in series [1] of over 100 µM. Also, the half-maximal inhibitory concentration (IC50) in series [4] (Cedar virus, HEK-293T, 48 h) was found to be 0.13 µM; in series [5], 0.41 µM.
Regarding “(1-(6-(cyclopropylamino)pyrimidin-4-yl)piperidin-4-yl)-N-(2-(thiophen-2-yl)ethyl)propenamide [Compound A3]”, the CC50 in [7] and in series [8] was over 100 µM each time. The IC50 in series [4] is about 0.3 µM.
On to “cyclobutyl(1-(4-ethoxyphenyl)-1,3,4,9-tetrahydro-2H-pyrido[3,4-b]indol-2-yl)methanone [Compound F1]”, for which, in [2], the “Inhibition of cell-cell membrane fusion activity” value is listed as “did not inhibit cell-cell membrane fusion activity”. Besides, the IC50 in series [3] came to 19.6 µM; in series [6], 4.15 µM. For the same compound, the CC50 in series [7] (African green monkey) was over 100 µM; in [8] (human), 85.8 µM; in series [9], over 100 µM. Further, the “Cytotoxicity (in words)” value in [8] is recorded as “mild toxicity”.
